Source: the supplement of paper PMC10307832

Legend:
Experiment in all cases: relative viability (nuclei count vs DMSO), 5 days (fraction); higher = more cells survive
[1] = compound: C[C@@H](N)c1ccc(C(=O)Nc2ccnc3[nH]ccc23)cc1 + COc1cc2c(Oc3ccc(NC(=O)C4(C(=O)Nc5ccc(F)cc5)CC4)cc3F)ccnc2cc1OCCCN1CCOCC1 [Foretinib] (partner 0.25 µM)
Procedure, shortened: (§1)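 Nuclei were stained with Hoechst during a one-step fixation (final 0.05% Triton X-100, 1% formaldehyde, 1 ug/ml Hoechst) carried out 5 days after dosing, then counted on 4× images. The cells, lung cancer lines in 1536-well plates, had been dosed by pin tool the day after seeding with one drug alone or a fixed anchor-drug dose plus five library-drug doses (not always all listed) in √10 steps. Relative viability is the nuclei count in treated wells divided by that in vehicle wells, and each value is the median of duplicate plates.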

[2] = compound: C[C@@H](N)c1ccc(C(=O)Nc2ccnc3[nH]ccc23)cc1 + Nc1ncn([C@H]2C[C@H](O)[C@@H](CO)O2)c(=O)n1 [Decitabine] (partner 2 µM)
Procedure, shortened: as §1

Tanzisertib + Linsitinib = compound: O[C@H]1CC[C@H](Nc2ncc3nc(Nc4c(F)cc(F)cc4F)n([C@H]4CCOC4)c3n2)CC1 [Tanzisertib] + C[C@]1(O)C[C@@H](c2nc(-c3ccc4ccc(-c5ccccc5)nc4c3)c3c(N)nccn32)C1 [Linsitinib] (partner 1 µM)
Procedure, shortened: as §1

Tanzisertib + Phenformin = compound: O[C@H]1CC[C@H](Nc2ncc3nc(Nc4c(F)cc(F)cc4F)n([C@H]4CCOC4)c3n2)CC1 [Tanzisertib] + N=C(N)NC(=N)NCCc1ccccc1 [Phenformin] (partner 250 µM)
Procedure, shortened: as §1

## UMC-11
[1]; first compound 0.04 µM
  relative viability: 1.14
[1]; first compound 0.1265 µM
  relative viability: 1.1
[1]; first compound 0.4 µM
  relative viability: 1.12
[1]; first compound 1.265 µM
  relative viability: 1
[1]; first compound 4 µM
  relative viability: 0.694
[2]; first compound 0.1265 µM
  relative viability: 0.608
[2]; first compound 0.4 µM
  relative viability: 0.604
[2]; first compound 1.265 µM
  relative viability: 0.481
[2]; first compound 4 µM
  relative viability: 0.324
Tanzisertib + Linsitinib; first compound 0.08 µM
  relative viability: 1
Tanzisertib + Linsitinib; first compound 0.253 µM
  relative viability: 0.954
Tanzisertib + Linsitinib; first compound 0.8 µM
  relative viability: 1.03
Tanzisertib + Linsitinib; first compound 2.53 µM
  relative viability: 0.988
Tanzisertib + Linsitinib; first compound 8 µM
  relative viability: 1.06
Tanzisertib + Phenformin; first compound 0.08 µM
  relative viability: 0.339
Tanzisertib + Phenformin; first compound 0.253 µM
  relative viability: 0.35
Tanzisertib + Phenformin; first compound 0.8 µM
  relative viability: 0.342
Tanzisertib + Phenformin; first compound 2.53 µM
  relative viability: 0.351
Tanzisertib + Phenformin; first compound 8 µM
  relative viability: 0.37
